Measured values reported in PubChem BioAssay (NCI).
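In this assay, cells in 96-well plates receive the compound at five concentrations for 48 hours. Endpoints are linearly interpolated between the surrounding concentrations. GI50: concentration for 50% inhibition of growth. At the TGI there is no net growth.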

Legend:
Experiment in all cases: NCI tumour cell line growth inhibition, 48 h
HCC-2998 colon = test system: HCC-2998 colon
MDA-MB-231 breast = test system: MDA-MB-231 breast
MALME-3M melanoma = test system: MALME-3M melanoma
NCI-H522 lung = test system: NCI-H522 lung
SR leukemia = test system: SR leukemia
HOP-62 NSCLC = test system: HOP-62 NSCLC
MDA-MB-435 = test system: MDA-MB-435
OVCAR-5 ovarian = test system: OVCAR-5 ovarian
EKVX NSCLC = test system: EKVX NSCLC
MCF7 breast = test system: MCF7 breast

In the case of `Cc1csc(/C=N/NC(=O)c2nnn(-c3ccnc4c(C(F)(F)F)cccc34)c2C)c1`, the GI50 (HCC-2998 colon) is reported as greater than 100 µM, the TGI (HCC-2998 colon) is reported as greater than 100 µM and the GI50 (MDA-MB-231 breast) is reported as 31.7 µM. For the same compound, the TGI (MDA-MB-231 breast) was greater than 100 µM, the GI50 (MALME-3M melanoma) was 26.9 µM and the TGI (MALME-3M melanoma) was 92.2 µM. The GI50 (NCI-H522 lung) was 28.7 µM, the TGI (NCI-H522 lung) was greater than 100 µM and the GI50 (SR leukemia) was 19.3 µM. It also gave a TGI (SR leukemia) greater than 100 µM, a GI50 (HOP-62 NSCLC) of 63.5 µM and a TGI (HOP-62 NSCLC) greater than 100 µM. For the same compound, the GI50 (MDA-MB-435) was 85.3 µM, the TGI (MDA-MB-435) was greater than 100 µM and the GI50 (OVCAR-5 ovarian) was greater than 100 µM. The TGI (OVCAR-5 ovarian) was greater than 100 µM, the GI50 (EKVX NSCLC) was greater than 100 µM and the TGI (EKVX NSCLC) was greater than 100 µM. For the same compound, the GI50 (MCF7 breast) was greater than 100 µM and the TGI (MCF7 breast) was greater than 100 µM.

Compound `O=C(Cn1c(=O)c(-c2ccccc2)nc2ccccc21)c1ccc(Cl)cc1` has a GI50 (HCC-2998 colon) of 99.5 µM, a TGI (HCC-2998 colon) greater than 100 µM and a GI50 (MDA-MB-231 breast) of 40.9 µM. For the same compound, the TGI (MDA-MB-231 breast) was greater than 100 µM, the GI50 (MALME-3M melanoma) was greater than 100 µM and the TGI (MALME-3M melanoma) was greater than 100 µM. The GI50 (NCI-H522 lung) was greater than 100 µM, the TGI (NCI-H522 lung) was greater than 100 µM and the GI50 (SR leukemia) was 37.1 µM. It also gave a TGI (SR leukemia) greater than 100 µM, a GI50 (HOP-62 NSCLC) of 33.4 µM and a TGI (HOP-62 NSCLC) greater than 100 µM. It also gave a GI50 (MDA-MB-435) greater than 100 µM, a TGI (MDA-MB-435) greater than 100 µM and a GI50 (OVCAR-5 ovarian) greater than 100 µM. For the same compound, the TGI (OVCAR-5 ovarian) was greater than 100 µM, the GI50 (EKVX NSCLC) was 94.2 µM and the TGI (EKVX NSCLC) was greater than 100 µM. It also gave a GI50 (MCF7 breast) of 71.2 µM and a TGI (MCF7 breast) greater than 100 µM.

In the case of `O=C(/C=C/c1ccccc1)c1c[nH]c2ccccc2c1=O`, the GI50 (HCC-2998 colon) is reported as 2.85 µM, the TGI (HCC-2998 colon) is reported as 9.48 µM and the GI50 (MDA-MB-231 breast) is reported as 4.22 µM. The TGI (MDA-MB-231 breast) was 18.7 µM, the GI50 (MALME-3M melanoma) was 8.81 µM and the TGI (MALME-3M melanoma) was 27.1 µM. The GI50 (NCI-H522 lung) was 1.88 µM, the TGI (NCI-H522 lung) was 4.85 µM and the GI50 (SR leukemia) was 2.62 µM. It also gave a TGI (SR leukemia) greater than 100 µM, a GI50 (HOP-62 NSCLC) of 3.5 µM and a TGI (HOP-62 NSCLC) of 12.2 µM. The GI50 (MDA-MB-435) was 3.17 µM, the TGI (MDA-MB-435) was 13.8 µM and the GI50 (OVCAR-5 ovarian) was 3.87 µM. For the same compound, the TGI (OVCAR-5 ovarian) was 17 µM, the GI50 (EKVX NSCLC) was 3.95 µM and the TGI (EKVX NSCLC) was 20.1 µM. It also gave a GI50 (MCF7 breast) of 2.33 µM and a TGI (MCF7 breast) of 12.6 µM.

`COc1ccc(Cl)cc1Nc1nc(C(F)(F)F)ccc1C(=O)N/N=C/c1ccc([N+](=O)[O-])cc1` showed a GI50 (HCC-2998 colon) of 1.29 µM, a TGI (HCC-2998 colon) of 7.27 µM and a GI50 (MDA-MB-231 breast) of 1.49 µM. For the same compound, the TGI (MDA-MB-231 breast) was 4.38 µM, the GI50 (MALME-3M melanoma) was 2.3 µM and the TGI (MALME-3M melanoma) was 5.59 µM. It also gave a GI50 (NCI-H522 lung) of 1.62 µM, a TGI (NCI-H522 lung) of 4.77 µM and a GI50 (SR leukemia) of 1.76 µM. The TGI (SR leukemia) was 4.95 µM, the GI50 (HOP-62 NSCLC) was 2.35 µM and the TGI (HOP-62 NSCLC) was 11.4 µM. For the same compound, the GI50 (MDA-MB-435) was 2.66 µM, the TGI (MDA-MB-435) was 13.1 µM and the GI50 (OVCAR-5 ovarian) was 1.73 µM. For the same compound, the TGI (OVCAR-5 ovarian) was 7.59 µM, the GI50 (EKVX NSCLC) was 2.01 µM and the TGI (EKVX NSCLC) was 9.27 µM. The GI50 (MCF7 breast) was 2.2 µM and the TGI (MCF7 breast) was 7.85 µM.

Compound `NC(=O)c1cc(-c2ccncc2)cc(-c2ccccc2)c1N` has a GI50 (HCC-2998 colon) greater than 25 µM, a TGI (HCC-2998 colon) greater than 25 µM and a GI50 (MDA-MB-231 breast) of 12.2 µM. It also gave a TGI (MDA-MB-231 breast) greater than 25 µM, a GI50 (MALME-3M melanoma) greater than 25 µM and a TGI (MALME-3M melanoma) greater than 25 µM. For the same compound, the GI50 (NCI-H522 lung) was 7.68 µM, the TGI (NCI-H522 lung) was greater than 15.8 µM and the GI50 (SR leukemia) was 13.5 µM. It also gave a TGI (SR leukemia) greater than 25 µM, a GI50 (HOP-62 NSCLC) greater than 25 µM and a TGI (HOP-62 NSCLC) greater than 25 µM. For the same compound, the GI50 (MDA-MB-435) was greater than 25 µM, the TGI (MDA-MB-435) was greater than 25 µM and the GI50 (OVCAR-5 ovarian) was greater than 25 µM. It also gave a TGI (OVCAR-5 ovarian) greater than 25 µM, a GI50 (EKVX NSCLC) greater than 20.2 µM and a TGI (EKVX NSCLC) greater than 25 µM. It also gave a GI50 (MCF7 breast) greater than 25 µM and a TGI (MCF7 breast) greater than 25 µM.
